Measurements published in patent US7169574B2, “Fluorescence detection of proteases or peptidases” (Institut National de la Sante et de la Recherche Medicale …, priority 2000, dated 2007).
“And” between values parts separate entries of the source, which are not always exact repeats. Identical values can stand only once. Numbered stars: 1 amine (or outer) side, 2 acyl side, 3 side chain; on linkers, the order of the positions; unused ones are H or OH. Square brackets hold non-standard residues; d marks the D form. Primed or numbered codes have the meaning given here. Ends that are not written are not given here. PyA″ = pyrenylalanine, O=C([C@H](Cc1ccc2ccc3cccc4ccc1c2c34)N[*:1])[*:2]; Phe(4-NO2) = N[C@@H](Cc1ccc([N+](=O)[O-])cc1)C(=O)O

Columns and labels:
[1] = Stability of the fluorescence of the metabolites formed by ECE; type: physicochemical
From the text: The measurement of this intensity, related to a standard curve established with mixtures of the substrate and of the fluorescent metabolite formed, therefore makes it possible either to evaluate the inhibitory capacity as percentage inhibition at a set given concentration of the product P, or to precisely determine its IC50 and then its KI using the Km of the substrate and several concentrations of the product P. The extreme sensitivity of the assay makes it possible to operate in very small volumes (100 μl) with concentrations of the order of 20 μM of the substrate 1s (that is to say 2 nmole corresponding to 4.43 μg per assay) or 5 μM of the substrate 2s. The test can therefore be very easily used in 96 wells plates or more, making it possible to automate it with automatic determination of the KI values when the reading fluorimeter is connected to a computer having suitable commercial software.

ECE [2] = biological target: T1, ECE (Homo sapiens, UniProt P42892); test: ECE inhibition test, fluorescence reading on 96-well microplate (Examples 3 and 4); type: biochemical; conditions: for fluorescence intensity measured for each well: excitation 340 nm, emission 400 nm, gain 85, low value = strong inhibition, blank 67/68, control 1081/1094
T1 construct: made in house; host or cells: Cos-1 cells or CHO cells
T1 sequence (P42892 1-754 isoform P42892-3): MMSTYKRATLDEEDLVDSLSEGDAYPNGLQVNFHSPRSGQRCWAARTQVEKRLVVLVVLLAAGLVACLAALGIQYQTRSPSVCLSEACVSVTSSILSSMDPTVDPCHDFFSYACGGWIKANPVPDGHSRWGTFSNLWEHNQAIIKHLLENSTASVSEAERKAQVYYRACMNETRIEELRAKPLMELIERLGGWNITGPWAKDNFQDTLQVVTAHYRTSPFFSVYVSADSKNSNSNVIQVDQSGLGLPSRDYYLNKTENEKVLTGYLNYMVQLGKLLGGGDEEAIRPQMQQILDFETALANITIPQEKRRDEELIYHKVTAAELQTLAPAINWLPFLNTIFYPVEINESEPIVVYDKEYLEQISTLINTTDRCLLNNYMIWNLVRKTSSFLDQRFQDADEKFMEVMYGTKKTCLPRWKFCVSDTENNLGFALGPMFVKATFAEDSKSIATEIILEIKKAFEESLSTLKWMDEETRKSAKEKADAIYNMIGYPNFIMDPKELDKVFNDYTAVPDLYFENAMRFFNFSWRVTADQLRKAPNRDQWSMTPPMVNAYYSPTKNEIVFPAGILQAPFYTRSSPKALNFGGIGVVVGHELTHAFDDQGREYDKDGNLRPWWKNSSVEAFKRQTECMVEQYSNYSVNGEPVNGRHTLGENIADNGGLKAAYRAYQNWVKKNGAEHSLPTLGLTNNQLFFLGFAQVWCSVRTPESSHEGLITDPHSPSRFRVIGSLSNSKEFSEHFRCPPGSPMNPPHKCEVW
Method: 100 μl of 50 mM Tris-maleate buffer, pH 6.5, 20 μM or 5 μM of fluorescent peptide 1s or 2s and 10 μl of a solution of ECE diluted as a function of its purity and such that the cleavage of the fluorescent substrate remains less than 5%. […] The reaction is stopped in various ways, for example heating to 90° C., abrupt cooling to 4° C., adding an organic solvent such as dioxane to 20% of the final volume, and then the reading is performed using a fluorimeter (λex=340 nm; λem=400 nm) optionally coupled to the automated analysis system. […] The controls are performed in the presence of all the reagents but without ECE or with ECE inactivated beforehand by heating at 90° C. for 5 minutes.
The inhibitory behavior of several compounds was assessed by reproducing the protocol described in Example 2.
The specific conditions selected for the assays appear below:
Preincubation is carried out for 10 minutes at 37° C. The ECE substrate is then added at an amount of 10 μM. The entire mixture is incubated for between 20 minutes and 1 hour at 37C and the reaction is then stopped either by cooling or by adding dioxane (20 μl).
The reading on cytofluor is performed at 4° C. with the following specificities: excitation 340 nm, emission 400 nm and with a gain of 85.
The assays are performed on a 96-well microplate.
The compounds were tested at two concentrations.

[3] = biological target: T2, endothelin-converting enzyme (ECE) (Homo sapiens, UniProt P42892); test: Fluorimetric ECE activity assay with fluorescent peptide substrates (96-well plates); type: biochemical; conditions: 50 mM Tris-maleate buffer, pH 6.5; calculated using the ENZFITTER program; read-out: Km (affinity constant of the enzyme for a substrate)
T2 construct: made in house; host or cells: Cos-1 cells or CHO cells
T2 sequence (P42892 1-754 isoform P42892-3): T1 sequence (P42892 1-754 isoform P42892-3)
Method: Various preparations containing ECE can be used, such as, for example, recombinant human ECE-1c expressed in Cos-1 cells (Shimada et al., J. Biol. Chem. (1994) 269, 18275–18278) or CHO cells (Xu et al. Cell (1994) 78, 473–485).
In all cases, the presence of the enzyme is tested by Western blotting using an antibody and its concentration is evaluated by comparison with the purified enzyme.
The ECE activity is determined in 96-well plates, generally under the following conditions:
100 μl of 50 mM Tris-maleate buffer, pH 6.5, 20 μM or 5 μM of fluorescent peptide 1s or 2s and 10 μl of a solution of ECE diluted as a function of its purity and such that the cleavage of the fluorescent substrate remains less than 5%. […] The reaction is stopped in various ways, for example heating to 90° C., abrupt cooling to 4° C., adding an organic solvent such as dioxane to 20% of the final volume, and then the reading is performed using a fluorimeter (λex=340 nm; λem=400 nm) optionally coupled to the automated analysis system. The use of a network fluorimeter considerably further increases the sensitivity of the assay by reading the fluorescence at 377 nm. […]
The KI values for the inhibitors can be determined automatically using the degradation percentages at various concentrations and comparison with a standard range. […]

ECE [4] = biological target: T1, ECE; test: HPLC analysis of products formed on incubation with ECE; type: biochemical; conditions: single cleavage at the PyA-pNF peptide bond
Method: With regard to the products formed, the analysis thereof was carried out, in order to verify the substrate selectivity, by HPLC on a nucleosil C18 column, 7 μm/300 Å (4.6×70 mm), using a buffer B (0.038% of TFA in CH3CN/H2O, 9/1 by vol.) and a gradient of 40–47% of buffer B in 10 minutes (flow rate 1 ml/min).

Question: Which “fluorescence of the metabolite over time” value [1] does the source give for “Ac-Ile-Ile-PyA (Ac-Ile-Ile-[PyA″]) [peptide 1m, fluorescent metabolite of 1s formed by ECE]” here?
Answer: Its value is “not modified over several hours”.

Question: For `NCCCC[C@H](N[C@@H](CCc1ccccc1)C(=O)O)C(=O)N1CCC[C@H]1C(=O)O` [L, lysinopril], which “fluorescence intensity measured for each well” value (“fluorescence intensity measured” for short) (ECE [2]; compound at 5 × 10^−6 M) is on record?
Answer: Its value is 1095 and 1119.

Question: And the “fluorescence intensity measured” value (ECE [2]; compound at 10^−6 M)?
Answer: Its value is 1117 and 1093.

Question: For `O=C(O)CNC(=O)C(CS)Cc1ccccc1` (centres unmarked) [T, thiorphan], which “fluorescence intensity measured” value (ECE [2]; compound at 5 × 10^−6 M) is on record?
Answer: Its value is 1109 and 1121.

Question: And the “fluorescence intensity measured” value (ECE [2]; compound at 10^−6 M)?
Answer: The value was 1124 and 1127.

Question: With `O=C(O)CC(=O)NC(CS)Cc1ccccc1` (centres unmarked) [R, retrothiorphan] as the compound, how does the “fluorescence intensity measured” value (ECE [2]; compound at 5 × 10^−6 M) read?
Answer: Its value is 1043 and 1077.

Question: And the “fluorescence intensity measured” value (ECE [2]; compound at 10^−6 M)?
Answer: Its value is 1124 and 1106.

Question: Which Km [3] does the source give for “Ac-Ile-Ile-PyA-pNF-Asn-Thr-Pro-Glu-His-Val-Val-Pro-Tyr-Gly-Leu-Gly-Ser-COOH (Ac-II[PyA″][Phe(4-NO2)]NTPEHVVPYGLGS-OH; SMILES CC[C@H](C)[C@H](NC(C)=O)C(=O)N[C@H](C(=O)N[C@@H](Cc1ccc2ccc3cccc4ccc1c2c34)C(=O)N[C@@H](Cc1ccc([N+](=O)[O-])cc1)C(=O)N[C@@H](CC(N)=O)C(=O)N[C@H](C(=O)N1CCC[C@H]1C(=O)N[C@@H](CCC(=O)O)C(=O)N[C@@H](Cc1c[nH]cn1)C(=O)N[C@H](C(=O)N[C@H](C(=O)N1CCC[C@H]1C(=O)N[C@@H](Cc1ccc(O)cc1)C(=O)NCC(=O)N[C@@H](CC(C)C)C(=O)NCC(=O)N[C@@H](CO)C(=O)O)C(C)C)C(C)C)[C@@H](C)O)[C@@H](C)CC) [peptide 1s, fluorogenic ECE substrate]” here?
Answer: Its Km is 22.1 ± 0.9 µM.

Question: And the “metabolites produced when incubated with ECE” value (ECE [4])?
Answer: Its value is “only two metabolites”.

Question: For Ac-Arg-Pro-Lys-Gln-Glu-PyA [peptide 2m], which “fluorescence of the metabolite over time” value [1] is on record?
Answer: Its value is “not modified over several hours”.

Question: What does the source list for `C[C@H](CS)C(=O)N1CCC[C@H]1C(=O)O` [C, captopril]?
Answer: fluorescence intensity measured for each well (ECE [2]; compound at 5 × 10^−6 M): 1128 and 1121; fluorescence intensity measured for each well (ECE [2]; compound at 10^−6 M): 1086 and 1089

Question: With “Ac-Ser-Gly-PyA-Lys-Ala (Ac-SG[PyA″]KA) [peptide 3m, fluorescent metabolite of 3s formed by ECE]” as the compound, how does the “fluorescence of the metabolite over time” value [1] read?
Answer: Its value is “not modified over several hours”.

Question: With `CC(C)C[C@H](NP(=O)(O)O[C@@H]1O[C@@H](C)[C@H](O)[C@@H](O)[C@H]1O)C(=O)N[C@@H](Cc1c[nH]c2ccccc12)C(=O)O` [P, phosphoramidon] as the compound, how does the “inhibitory behavior on ECE” value (ECE [2]; Table II, 10^−6 M and 5 × 10^−6 M) read?
Answer: Its value is “entirely verified”.

Question: And the “fluorescence intensity measured” value (ECE [2]; compound at 5 × 10^−6 M)?
Answer: The value was 140 and 133.

Question: What about the “fluorescence intensity measured” value (ECE [2]; compound at 10^−6 M) of the same compound?
Answer: Its value is 455 and 459.

Question: With “Ac-Ser-Gly-PyA-Lys-Ala-Phe-Ala-pNF-Gly-Lys NH2 (Ac-SG[PyA″]KAFA[Phe(4-NO2)]GK-NH2; SMILES CC(=O)N[C@@H](CO)C(=O)NCC(=O)N[C@@H](Cc1ccc2ccc3cccc4ccc1c2c34)C(=O)N[C@@H](CCCCN)C(=O)N[C@@H](C)C(=O)N[C@@H](Cc1ccccc1)C(=O)N[C@@H](C)C(=O)N[C@@H](Cc1ccc([N+](=O)[O-])cc1)C(=O)NCC(=O)N[C@@H](CCCCN)C(N)=O) [peptide 3s, fluorogenic ECE substrate]” as the compound, how does the “metabolites produced when incubated with ECE” value (ECE [4]) read?
Answer: Its value is “only two metabolites”.
